In patent US12509454B2, “Thiadiazolyl derivatives” (IDEAYA Biosciences, Inc., priority 2019, dated 2025):

biological target: Pol theta (1-899) (Homo sapiens (Human), UniProt O75417); assay: Pol theta ATPase activity, NADH oxidation-coupled enzymatic assay; format: biochemical; conditions: Pol theta (1-899) 10 nM, ATP, dT50 ssDNA, absorbance 340 nm, 10-point dilution series; read-out: ATPase NADH coupling:Standard Screening:hPolQ IC50
Procedure, shortened: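 Pol theta (1-899), 10 nM, preincubated 15 min at RT with 10-point compound series in Tris pH 7.80/KCl/MgCl2 buffer, then given 100 μM ATP plus 300 nM dT50 ssDNA with PK/LDH-coupled NADH oxidation. A340 followed for 30 min; rate slopes fitted with a four-parameter model for IC50.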

Sequence of Pol theta (1-899) (O75417 1-899): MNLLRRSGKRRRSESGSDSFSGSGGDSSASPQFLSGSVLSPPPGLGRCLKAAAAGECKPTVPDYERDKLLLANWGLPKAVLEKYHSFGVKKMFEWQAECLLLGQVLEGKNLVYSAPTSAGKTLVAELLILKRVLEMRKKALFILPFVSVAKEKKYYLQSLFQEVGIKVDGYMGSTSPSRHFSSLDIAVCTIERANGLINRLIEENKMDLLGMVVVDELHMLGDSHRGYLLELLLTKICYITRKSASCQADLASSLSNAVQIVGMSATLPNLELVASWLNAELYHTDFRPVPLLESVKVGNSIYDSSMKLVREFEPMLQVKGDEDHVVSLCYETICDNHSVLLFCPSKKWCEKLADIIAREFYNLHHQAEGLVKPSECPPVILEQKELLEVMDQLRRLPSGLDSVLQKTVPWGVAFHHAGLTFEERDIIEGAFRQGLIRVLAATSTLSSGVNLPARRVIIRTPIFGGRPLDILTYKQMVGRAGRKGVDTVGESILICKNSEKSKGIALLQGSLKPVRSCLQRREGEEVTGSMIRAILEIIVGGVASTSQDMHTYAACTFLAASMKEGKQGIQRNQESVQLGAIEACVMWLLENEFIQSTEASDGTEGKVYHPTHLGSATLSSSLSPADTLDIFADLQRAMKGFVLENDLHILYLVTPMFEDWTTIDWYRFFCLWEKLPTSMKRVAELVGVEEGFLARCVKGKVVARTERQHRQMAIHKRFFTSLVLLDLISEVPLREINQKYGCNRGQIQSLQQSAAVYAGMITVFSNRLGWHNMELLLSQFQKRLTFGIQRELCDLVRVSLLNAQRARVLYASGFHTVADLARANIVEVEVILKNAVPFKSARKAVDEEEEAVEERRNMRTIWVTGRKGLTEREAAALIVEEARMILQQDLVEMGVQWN

IC50 [nM]	Compound
≤ 200	O=C(Nc1nnc(OCc2ccc(Cl)cc2)s1)c1ccncc1-c1cccc2ncoc12 [Example 111, 3-(benzo[d]oxazol-7-yl)-N-(5-((4-chlorobenzyl)oxy)-1,3,4-thiadiazol-2-yl)isonicotinamide]
≤ 200	O=C(Nc1nnc(OCc2ccc(Cl)cc2)s1)c1cnncc1-c1ccccc1OC(F)F [Example 112, N-(5-((4-chlorobenzyl)oxy)-1,3,4-thiadiazol-2-yl)-5-(2-(difluoromethoxy)phenyl)pyridazine-4-carboxamide]
≤ 200	COc1ccccc1-c1cc(C)ncc1C(=O)Nc1nnc(OCc2ccc(Cl)cn2)s1 [Example 113, N-(5-((5-chloropyridin-2-yl)methoxy)-1,3,4-thiadiazol-2-yl)-4-(2-methoxyphenyl)-6-methylnicotinamide]
≤ 200	Cc1cc(-c2ccccc2OC(F)F)c(C(=O)Nc2nnc(OCc3ccc(Cl)cc3)s2)cn1 [Example 114, N-[5-[(4-chlorophenyl)methoxy]-1,3,4-thiadiazol-2-yl]-4-[2-(difluoromethoxy)phenyl]-6-methylpyridine-3-carboxamide]
≤ 200	Cc1cc(-c2ccccc2OC(F)F)c(C(=O)Nc2nnc(OCc3ccc(Cl)cn3)s2)cn1 [Example 115, N-[5-[(5-chloropyridin-2-yl)methoxy]-1,3,4-thiadiazol-2-yl]-4-[2-(difluoromethoxy)phenyl]-6-methylpyridine-3-carboxamide]
≤ 200	COc1ccc(C#N)cc1-c1cc(C)ncc1C(=O)Nc1nnc(OCc2ccc(Cl)cc2)s1 [Example 116, N-[5-[(4-chlorophenyl)methoxy]-1,3,4-thiadiazol-2-yl]-4-(5-cyano-2-methoxyphenyl)-6-methylpyridine-3-carboxamide]
≤ 200	COc1ccc(C#N)cc1-c1cc(C)ncc1C(=O)Nc1nnc(OCc2ccc(Cl)cn2)s1 [Example 117, N-[5-[(5-chloropyridin-2-yl)methoxy]-1,3,4-thiadiazol-2-yl]-4-(5-cyano-2-methoxyphenyl)-6-methylpyridine-3-carboxamide]
200 to 500	Cc1cn[nH]c1-c1cnccc1C(=O)Nc1nnc(OCc2ccc(Cl)cc2)s1 [Example 118, N-(5-((4-chlorobenzyl)oxy)-1,3,4-thiadiazol-2-yl)-3-(4-methyl-1H-pyrazol-5-yl)isonicotinamide]
≤ 200	O=C(Nc1nnc(OCc2ccc(Cl)cc2)s1)c1ccncc1-c1cccc2[nH]ncc12 [Example 119, N-(5-((4-chlorobenzyl)oxy)-1,3,4-thiadiazol-2-yl)-3-(1H-indazol-4-yl)isonicotinamide]
≤ 200	O=C1COc2c(cccc2-c2cnccc2C(=O)Nc2nnc(OCc3ccc(Cl)cc3)s2)N1 [Example 120, N-(5-((4-chlorobenzyl)oxy)-1,3,4-thiadiazol-2-yl)-3-(3-oxo-3,4-dihydro-2H-benzo[b][1,4]oxazin-8-yl)isonicotinamide]
≤ 200	O=C(Nc1nnc(OCc2ccc(Cl)cc2)s1)c1ccncc1-c1cccc2c1OC(F)(F)O2 [Example 121, N-(5-((4-chlorobenzyl)oxy)-1,3,4-thiadiazol-2-yl)-3-(2,2-difluorobenzo[d][1,3]dioxol-4-yl)isonicotinamide]
≤ 200	Cn1cc(-c2ccncc2C(=O)Nc2nnc(OCc3ccc(Cl)cc3)s2)ccc1=O [Example 122, N-(5-((4-chlorobenzyl)oxy)-1,3,4-thiadiazol-2-yl)-1-methyl-6-oxo-1,6-dihydro-[3,4′-bipyridine]-3′-carboxamide]

The remaining lines, values behind:

Compound	IC50 [nM]
COc1ccccc1-c1ccncc1C(=O)Nc1nnc(OCc2ccc(Br)cn2)s1 [Example 97, N-(5-((5-bromopyridin-2-yl)methoxy)-1,3,4-thiadiazol-2-yl)-4-(2-methoxy-phenyl)nicotinamide]	≤ 200
O=C(Nc1nnc(OCc2ccc(Cl)cc2)s1)c1cnc(-c2ncc[nH]2)cc1N1CCOCC1 [Example 98, N-(5-((4-chlorobenzyl)oxy)-1,3,4-thiadiazol-2-yl)-6-(1H-imidazol-2-yl)-4-morpholinonicotinamide]	500 to 1000
COc1ccccc1-c1cnccc1C(=O)Nc1nnc(OCc2ccc(Cl)cn2)s1 [Example 99, N-[5-[(5-chloropyridin-2-yl)methoxy]-1,3,4-thiadiazol-2-yl]-3-(2-methoxyphenyl)pyridine-4-carboxamide]	≤ 200
O=C(Nc1nnc(OCc2ccc(Cl)cc2)s1)c1ccncc1-c1ccccc1OC(F)F [Example 100, N-(5-((4-chlorobenzyl)oxy)-1,3,4-thiadiazol-2-yl)-3-(2-(difluoromethoxy)phenyl)isonicotinamide]	≤ 200
COc1ccccc1-c1cnccc1C(=O)Nc1nnc(OCc2ccc(C3CC3)nc2)s1 [Example 101, N-[5-[(6-cyclopropylpyridin-3-yl)methoxy]-1,3,4-thiadiazol-2-yl]-3-(2-methoxyphenyl)pyridine-4-carboxamide]	≤ 200
COc1ccccc1-c1cc(CO)ncc1C(=O)Nc1nnc(OCc2ccc(Cl)cc2)s1 [Example 102, N-(5-((4-chlorobenzyl)oxy)-1,3,4-thiadiazol-2-yl)-6-(hydroxymethyl)-4-(2-methoxyphenyl)nicotinamide]	≤ 200
O=C(Nc1nnc(OCc2ccc(Cl)cc2)s1)c1ccncc1-c1cccc2nsnc12 [Example 103, 3-(benzo[c][1,2,5]thiadiazol-4-yl)-N-(5-((4-chlorobenzyl)oxy)-1,3,4-thiadiazol-2-yl)isonicotinamide]	≤ 200
O=C(Nc1nnc(OCc2ccc(Cl)cn2)s1)c1cnc(CO)cc1-c1ccccc1OC(F)F [Example 104, N-(5-((5-chloropyridin-2-yl)methoxy)-1,3,4-thiadiazol-2-yl)-4-(2-(difluoromethoxy)phenyl)-6-(hydroxymethyl)nicotinamide]	≤ 200
COc1ccccc1-c1cc(CC#N)ncc1C(=O)Nc1nnc(OCc2ccc(Cl)cc2)s1 [Example 105, N-(5-((4-chlorobenzyl)oxy)-1,3,4-thiadiazol-2-yl)-6-(cyanomethyl)-4-(2-methoxyphenyl)nicotinamide]	≤ 200
COc1ccccc1-c1cnncc1C(=O)Nc1nnc(OCc2ccc(Cl)cn2)s1 [Example 106, N-(5-((5-chloropyridin-2-yl)methoxy)-1,3,4-thiadiazol-2-yl)-5-(2-methoxyphenyl)pyridazine-4-carboxamide]	≤ 200
COc1ccccc1-c1cnccc1C(=O)Nc1nnc(OCc2ccc(Cl)c3[nH]ncc23)s1 [Example 107, N-(5-((7-chloro-1H-indazol-4-yl)methoxy)-1,3,4-thiadiazol-2-yl)-3-(2-methoxyphenyl)isonicotinamide]	≤ 200
N#Cc1ccc(OC(F)F)c(-c2cnccc2C(=O)Nc2nnc(OCc3ccc(Cl)cc3)s2)c1 [Example 108, N-(5-((4-chlorobenzyl)oxy)-1,3,4-thiadiazol-2-yl)-3-(5-cyano-2-(difluoromethoxy)phenyl)isonicotinamide]	≤ 200
O=C(Nc1nnc(OCc2ccc(Cl)cc2)s1)c1ccncc1-c1c(F)cccc1OC(F)F [Example 109, N-(5-((4-chlorobenzyl)oxy)-1,3,4-thiadiazol-2-yl)-3-(2-(difluoromethoxy)-6-fluorophenyl)isonicotinamide]	≤ 200
C[C@H]1COC[C@H](C)N1c1cnccc1C(=O)Nc1nnc(OCc2ccc(Cl)cc2)s1 [Example 110, N-(5-((4-chlorobenzyl)oxy)-1,3,4-thiadiazol-2-yl)-3-((3S,5S)-3,5-dimethylmorpholino)isonicotinamide]	≤ 200
